Results taken from PubChem BioAssay (NCI).
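96-well plates; 48 h exposure; 5 concentrations. Endpoints by linear interpolation between flanking doses. Not reached: highest tested concentration assigned. TGI: total growth inhibition.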

What was measured:
Test in all cases: NCI anticancer screen, dose series, 48 h
HOP-62 NSCLC = system: HOP-62 NSCLC
UACC-257 melanoma = system: UACC-257 melanoma
DU-145 prostate = system: DU-145 prostate
NCI-H23 lung = system: NCI-H23 lung
SF-539 CNS = system: SF-539 CNS
SN12C renal = system: SN12C renal
SK-MEL-28 melanoma = system: SK-MEL-28 melanoma
MALME-3M melanoma = system: MALME-3M melanoma
RXF 393 renal = system: RXF 393 renal
HCT-116 colon = system: HCT-116 colon
HS 578T breast = system: HS 578T breast
A549 NSCLC = system: A549 NSCLC
SW-620 colon = system: SW-620 colon
SNB-75 CNS = system: SNB-75 CNS
HCC-2998 colon = system: HCC-2998 colon
NCI/ADR-RES ovarian = system: NCI/ADR-RES ovarian
CCRF-CEM leukemia = system: CCRF-CEM leukemia
EKVX NSCLC = system: EKVX NSCLC
RPMI-8226 leukemia = system: RPMI-8226 leukemia
SK-MEL-5 melanoma = system: SK-MEL-5 melanoma
SF-295 CNS = system: SF-295 CNS
BT-549 breast = system: BT-549 breast
HOP-92 NSCLC = system: HOP-92 NSCLC
NCI-H226 lung = system: NCI-H226 lung
MDA-MB-435 = system: MDA-MB-435
SF-268 CNS = system: SF-268 CNS
OVCAR-8 ovarian = system: OVCAR-8 ovarian
T-47D breast = system: T-47D breast
U251 CNS = system: U251 CNS
K-562 leukemia = system: K-562 leukemia
SNB-19 CNS = system: SNB-19 CNS
HT29 colon = system: HT29 colon
KM12 colon = system: KM12 colon
CAKI-1 renal = system: CAKI-1 renal
A498 renal = system: A498 renal
UACC-62 melanoma = system: UACC-62 melanoma
SK-OV-3 ovarian = system: SK-OV-3 ovarian
786-0 renal = system: 786-0 renal
PC-3 prostate = system: PC-3 prostate
IGROV1 ovarian = system: IGROV1 ovarian
SR leukemia = system: SR leukemia
MCF7 breast = system: MCF7 breast
UO-31 renal = system: UO-31 renal
LOX IMVI melanoma = system: LOX IMVI melanoma
MDA-MB-231 breast = system: MDA-MB-231 breast
OVCAR-4 ovarian = system: OVCAR-4 ovarian
MDA-N = system: MDA-N
M14 melanoma = system: M14 melanoma
MOLT-4 leukemia = system: MOLT-4 leukemia
SK-MEL-2 melanoma = system: SK-MEL-2 melanoma
OVCAR-5 ovarian = system: OVCAR-5 ovarian
HL-60(TB) leukemia = system: HL-60(TB) leukemia
HCT-15 colon = system: HCT-15 colon
NCI-H460 lung = system: NCI-H460 lung
COLO 205 colon = system: COLO 205 colon
OVCAR-3 ovarian = system: OVCAR-3 ovarian
NCI-H522 lung = system: NCI-H522 lung
ACHN renal = system: ACHN renal
TK-10 renal = system: TK-10 renal

CCOC(=O)c1cc2c([nH]1)c(O)cc1c2ccn1Cc1ccccc1 gave a TGI (HOP-62 NSCLC) of 38.7 µM, a TGI (UACC-257 melanoma) of 34.8 µM and a TGI (DU-145 prostate) of 34.3 µM. It also gave a TGI (NCI-H23 lung) of 28.1 µM, a TGI (SF-539 CNS) of 40.2 µM and a TGI (SN12C renal) of 36.6 µM. It also gave a TGI (SK-MEL-28 melanoma) of 33.8 µM, a TGI (MALME-3M melanoma) of 36.8 µM and a TGI (RXF 393 renal) of 21.9 µM. The TGI (HCT-116 colon) was 23.8 µM, the TGI (HS 578T breast) was 77.4 µM and the TGI (A549 NSCLC) was 30.3 µM. The TGI (SW-620 colon) was 40.6 µM, the TGI (SNB-75 CNS) was 50.2 µM and the TGI (HCC-2998 colon) was 37 µM. It also gave a TGI (NCI/ADR-RES ovarian) of 38.5 µM, a TGI (CCRF-CEM leukemia) of 39.9 µM and a TGI (EKVX NSCLC) of 26.7 µM. The TGI (RPMI-8226 leukemia) was 27.9 µM, the TGI (SK-MEL-5 melanoma) was 24.5 µM and the TGI (SF-295 CNS) was 31.6 µM. For the same compound, the TGI (BT-549 breast) was 32.2 µM, the TGI (HOP-92 NSCLC) was 27.7 µM and the TGI (NCI-H226 lung) was 36.9 µM. For the same compound, the TGI (MDA-MB-435) was 31 µM, the TGI (SF-268 CNS) was 51.3 µM and the TGI (OVCAR-8 ovarian) was 33.4 µM. It also gave a TGI (T-47D breast) of 11.9 µM, a TGI (U251 CNS) of 31.6 µM and a TGI (K-562 leukemia) of 25.3 µM. The TGI (SNB-19 CNS) was 28.2 µM, the TGI (HT29 colon) was 30.2 µM and the TGI (KM12 colon) was 24.8 µM. It also gave a TGI (CAKI-1 renal) of 36.8 µM, a TGI (A498 renal) of 82.4 µM and a TGI (UACC-62 melanoma) of 28.8 µM. The TGI (SK-OV-3 ovarian) was 39.5 µM, the TGI (786-0 renal) was 32.6 µM and the TGI (PC-3 prostate) was 34.2 µM. It also gave a TGI (IGROV1 ovarian) of 54.3 µM, a TGI (SR leukemia) of 16.9 µM and a TGI (MCF7 breast) of 44.4 µM. The TGI (UO-31 renal) was 29.3 µM, the TGI (LOX IMVI melanoma) was 28.1 µM and the TGI (MDA-MB-231 breast) was 49.1 µM. For the same compound, the TGI (OVCAR-4 ovarian) was 35.4 µM, the TGI (MDA-N) was 29.5 µM and the TGI (M14 melanoma) was 47.5 µM. It also gave a TGI (MOLT-4 leukemia) of 14.1 µM, a TGI (SK-MEL-2 melanoma) of 36.6 µM and a TGI (OVCAR-5 ovarian) of 41.4 µM. It also gave a TGI (HL-60(TB) leukemia) of 33.9 µM, a TGI (HCT-15 colon) of 30.5 µM and a TGI (NCI-H460 lung) of 34.7 µM. For the same compound, the TGI (COLO 205 colon) was 39.8 µM and the TGI (OVCAR-3 ovarian) was 31.6 µM.
With Cc1cc(S(=O)(=O)Nc2nc(N)n(-c3ccccn3)n2)c(S)cc1Cl the TGI (HOP-62 NSCLC) was greater than 100 µM, the TGI (UACC-257 melanoma) was greater than 100 µM and the TGI (DU-145 prostate) was greater than 100 µM. The TGI (SF-539 CNS) was greater than 100 µM, the TGI (SN12C renal) was greater than 100 µM and the TGI (SK-MEL-28 melanoma) was greater than 100 µM. It also gave a TGI (MALME-3M melanoma) greater than 100 µM, a TGI (RXF 393 renal) greater than 100 µM and a TGI (HCT-116 colon) greater than 100 µM. For the same compound, the TGI (HS 578T breast) was greater than 100 µM, the TGI (NCI-H522 lung) was greater than 100 µM and the TGI (A549 NSCLC) was greater than 100 µM. The TGI (SW-620 colon) was greater than 100 µM, the TGI (SNB-75 CNS) was greater than 100 µM and the TGI (ACHN renal) was greater than 100 µM. The TGI (HCC-2998 colon) was greater than 100 µM, the TGI (NCI/ADR-RES ovarian) was greater than 100 µM and the TGI (CCRF-CEM leukemia) was greater than 100 µM. It also gave a TGI (EKVX NSCLC) greater than 100 µM, a TGI (RPMI-8226 leukemia) greater than 100 µM and a TGI (SK-MEL-5 melanoma) greater than 100 µM. For the same compound, the TGI (BT-549 breast) was greater than 100 µM, the TGI (NCI-H226 lung) was greater than 100 µM and the TGI (MDA-MB-435) was greater than 100 µM. For the same compound, the TGI (SF-268 CNS) was greater than 100 µM, the TGI (OVCAR-8 ovarian) was greater than 100 µM and the TGI (T-47D breast) was greater than 100 µM. The TGI (U251 CNS) was greater than 100 µM, the TGI (K-562 leukemia) was greater than 100 µM and the TGI (SNB-19 CNS) was greater than 100 µM. It also gave a TGI (HT29 colon) greater than 100 µM, a TGI (KM12 colon) greater than 100 µM and a TGI (CAKI-1 renal) greater than 100 µM. It also gave a TGI (A498 renal) greater than 100 µM, a TGI (UACC-62 melanoma) greater than 100 µM and a TGI (SK-OV-3 ovarian) greater than 100 µM. It also gave a TGI (786-0 renal) greater than 100 µM, a TGI (PC-3 prostate) greater than 100 µM and a TGI (IGROV1 ovarian) greater than 100 µM. The TGI (SR leukemia) was greater than 100 µM, the TGI (MCF7 breast) was greater than 100 µM and the TGI (UO-31 renal) was greater than 100 µM. The TGI (LOX IMVI melanoma) was greater than 100 µM, the TGI (MDA-MB-231 breast) was greater than 100 µM and the TGI (OVCAR-4 ovarian) was greater than 100 µM. It also gave a TGI (MDA-N) greater than 100 µM, a TGI (M14 melanoma) greater than 100 µM and a TGI (MOLT-4 leukemia) greater than 100 µM. For the same compound, the TGI (SK-MEL-2 melanoma) was greater than 100 µM, the TGI (OVCAR-5 ovarian) was greater than 100 µM and the TGI (HL-60(TB) leukemia) was greater than 100 µM. The TGI (HCT-15 colon) was greater than 100 µM, the TGI (TK-10 renal) was greater than 100 µM and the TGI (NCI-H460 lung) was greater than 100 µM. For the same compound, the TGI (COLO 205 colon) was greater than 100 µM and the TGI (OVCAR-3 ovarian) was greater than 100 µM.
